Results reported in publication PMC11143312, “Antioxidant, anti-amylase, anti-lipase, and efficiency of Satureja fatty acid on the anti-inflammatory parameters in lipopolysaccharide-stimulated macrophage through Nrf2/NF-kB/NADH oxidase pathway” (Scientific Reports, 2024).
≈ marks a conversion by molar mass, not a printed value.

Experiments:
[1] = target: T1, lipase (EC 3.1.1.3, from Saccharomyces cerevisiae); test: p-nitrophenyl butyrate hydrolysis, absorbance at […] nm; format: biochemical; settings: 30 min pre-incubation, 37 °C; substrate pNPB; positive control
T1 construct: gene TGL2; discussion speaks of pancreatic lipase, but the assay used the yeast-labelled enzyme

[2] = tested on: T1, lipase (EC 3.1.1.3, from Saccharomyces cerevisiae); test: pNPB hydrolysis at […] nm, Lineweaver-Burk plot; format: biochemical; settings: no inhibitor; unit printed as µg, not a concentration; pNPB 0.0–10 mg/mL

## CCCCCCCCCCC[C@@H](C[C@@H]1OC(=O)[C@H]1CCCCCC)OC(=O)[C@H](CC(C)C)NC=O [orlistat]
[1]
  IC50: 213 ± 5.0 µg/mL (≈ 430 µM)

## CCCC(=O)Oc1ccc([N+](=O)[O-])cc1 [p-nitrophenyl butyrate]
[2]
  Km: 5.08 ± 0.23 µg
